“And” between values parts separate entries of the source, which are not always exact repeats. Equal entries are not always repeated.
Tested on: patients with treatment-resistant major depressive disorder (TRD)
Test: Phase 1/2 clinical trial of inhaled 5-MeO-DMT in TRD patients (12 mg, 18 mg, individualized dosing regimen IDR 6/12/18 mg)
Method: Patients were assigned to different groups. In the context of the present invention, the group who received a single, 12 mg dose and the group who underwent an intra-day individualized dosing regimen (IDR) that allowed for multiple, escalating doses (6 mg, 12 mg and 18 mg) within a single day, driven by the intensity of the patient-reported psychedelic experience are of interest.
The data gathered include the assessment of the treated patients against several scales including the Montgomery-Åsberg Depression Rating Scale (MADRS) and the Brief Psychiatric Rating Scale (BPRS).
This trial was designed in two parts. Part A was an open-label, single-arm, single-dose Phase 1 trial with two dose levels (12 mg (n=4) and 18 mg (n=4)). […] The primary endpoint of Part B was to assess the effects on the severity of depression, as assessed by the proportion of patients in remission on day seven after dosing, defined as a MADRS total score of less than or equal to 10.

SMILES: COc1ccc2[nH]cc(CCN(C)C)c2c1 [5-MeO-DMT]
- MADRS Concentration Difficulties improvement (points) (IDR n=8, 2 h): 19
- MADRS Concentration Difficulties percentage improvement (IDR n=8, 2 h): 63% and 63.33%
- MADRS Concentration Difficulties summed score (IDR n=8, 2 h): 11
- MADRS Inability to Feel improvement (points) (IDR n=8, 2 h): 24
- MADRS Inability to Feel percentage improvement (IDR n=8, 2 h): 67% and 66.67%
- MADRS Inability to Feel summed score (IDR n=8, 2 h): 12
- MADRS Inner Tension improvement (points) (IDR n=8, 2 h): 15
- MADRS Inner Tension percentage improvement (IDR n=8, 2 h): 58% and 57.69%
- MADRS Inner Tension summed score (IDR n=8, 2 h): 11
- MADRS Lassitude improvement (points) (IDR n=8, 2 h): 17
- MADRS Lassitude percentage improvement (IDR n=8, 2 h): 63% and 62.96%
- MADRS Lassitude summed score (IDR n=8, 2 h): 10
- MADRS Pessimistic Thoughts improvement (points) (IDR n=8, 2 h): 21
- MADRS Pessimistic Thoughts percentage improvement (IDR n=8, 2 h): 75%
- MADRS Pessimistic Thoughts summed score (IDR n=8, 2 h): 7
- MADRS Suicidal Thoughts improvement (points) (IDR n=8, 2 h): 8
- MADRS Suicidal Thoughts percentage improvement (IDR n=8, 2 h): 73% and 72.72%
- MADRS Suicidal Thoughts summed score (IDR n=8, 2 h): 3
- BPRS Anxiety improvement (points) (IDR n=8, 3 h): 18
- BPRS Anxiety percentage improvement (IDR n=8, 3 h): 49% and 48.65%
- BPRS Anxiety summed score (IDR n=8, 3 h): 19
- BPRS Blunted Affect improvement (points) (IDR n=8, 3 h): 4
- BPRS Blunted Affect percentage improvement (IDR n=8, 3 h): 27% and 26.67%
- BPRS Blunted Affect summed score (IDR n=8, 3 h): 11
- BPRS Emotional Withdrawal improvement (points) (IDR n=8, 3 h): 5
- BPRS Emotional Withdrawal percentage improvement (IDR n=8, 3 h): 38% and 38.46%
- BPRS Emotional Withdrawal summed score (IDR n=8, 3 h): 8
- BPRS Guilt Feelings improvement (points) (IDR n=8, 3 h): 20
- BPRS Guilt Feelings percentage improvement (IDR n=8, 3 h): 59% and 58.82%
- BPRS Guilt Feelings summed score (IDR n=8, 3 h): 14
- BPRS Tension improvement (points) (IDR n=8, 3 h): 5
- BPRS Tension percentage improvement (IDR n=8, 3 h): 31% and 31.25%
- BPRS Tension summed score (IDR n=8, 3 h): 11
- BPRS Anxiety improvement (points) (IDR n=8, Day 1): 21
- BPRS Anxiety percentage improvement (IDR n=8, Day 1): 57% and 56.76%
- BPRS Anxiety summed score (IDR n=8, Day 1): 16
- BPRS Blunted Affect improvement (points) (IDR n=8, Day 1): 7
- BPRS Blunted Affect percentage improvement (IDR n=8, Day 1): 47% and 46.67%
- BPRS Blunted Affect summed score (IDR n=8, Day 1): 8
- BPRS Emotional Withdrawal improvement (points) (IDR n=8, Day 1): 5
- BPRS Emotional Withdrawal percentage improvement (IDR n=8, Day 1): 38% and 38.46%
- BPRS Emotional Withdrawal summed score (IDR n=8, Day 1): 8
- BPRS Guilt Feelings improvement (points) (IDR n=8, Day 1): 23
- BPRS Guilt Feelings percentage improvement (IDR n=8, Day 1): 68% and 67.65%
- BPRS Guilt Feelings summed score (IDR n=8, Day 1): 11
- BPRS Tension improvement (points) (IDR n=8, Day 1): 5
- BPRS Tension percentage improvement (IDR n=8, Day 1): 31% and 31.25%
- BPRS Tension summed score (IDR n=8, Day 1): 11
- MADRS Concentration Difficulties improvement (points) (IDR n=8, Day 1): 29
- MADRS Concentration Difficulties percentage improvement (IDR n=8, Day 1): 97% and 96.67%
- MADRS Concentration Difficulties summed score (IDR n=8, Day 1): 1
- MADRS Inability to Feel improvement (points) (IDR n=8, Day 1): 34
- MADRS Inability to Feel percentage improvement (IDR n=8, Day 1): 94% and 94.44%
- MADRS Inability to Feel summed score (IDR n=8, Day 1): 2
- MADRS Inner Tension improvement (points) (IDR n=8, Day 1): 20
- MADRS Inner Tension percentage improvement (IDR n=8, Day 1): 77% and 76.92%
- MADRS Inner Tension summed score (IDR n=8, Day 1): 6
- MADRS Lassitude improvement (points) (IDR n=8, Day 1): 22
- MADRS Lassitude percentage improvement (IDR n=8, Day 1): 81% and 81.48%
- MADRS Lassitude summed score (IDR n=8, Day 1): 5
- MADRS Pessimistic Thoughts improvement (points) (IDR n=8, Day 1): 24
- MADRS Pessimistic Thoughts percentage improvement (IDR n=8, Day 1): 86% and 85.71%
- MADRS Pessimistic Thoughts summed score (IDR n=8, Day 1): 4
- MADRS Reduced Sleep improvement (points) (IDR n=8, Day 1): 13
- MADRS Reduced Sleep percentage improvement (IDR n=8, Day 1): 52%
- MADRS Reduced Sleep summed score (IDR n=8, Day 1): 12
- MADRS Suicidal Thoughts improvement (points) (IDR n=8, Day 1): 10
- MADRS Suicidal Thoughts percentage improvement (IDR n=8, Day 1): 91% and 90.91%
- MADRS Suicidal Thoughts summed score (IDR n=8, Day 1): 1
- BPRS Anxiety improvement (points) (IDR n=8, Day 7): 20
- BPRS Anxiety percentage improvement (IDR n=8, Day 7): 54% and 54.05%
- BPRS Anxiety summed score (IDR n=8, Day 7): 17
- BPRS Blunted Affect improvement (points) (IDR n=8, Day 7): 7
- BPRS Blunted Affect percentage improvement (IDR n=8, Day 7): 47% and 46.67%
- BPRS Blunted Affect summed score (IDR n=8, Day 7): 8
- BPRS Emotional Withdrawal improvement (points) (IDR n=8, Day 7): 5
- BPRS Emotional Withdrawal percentage improvement (IDR n=8, Day 7): 38% and 38.46%
- BPRS Emotional Withdrawal summed score (IDR n=8, Day 7): 8
- BPRS Guilt Feelings improvement (points) (IDR n=8, Day 7): 24
- BPRS Guilt Feelings percentage improvement (IDR n=8, Day 7): 71% and 70.59%
- BPRS Guilt Feelings summed score (IDR n=8, Day 7): 10
- BPRS Tension improvement (points) (IDR n=8, Day 7): 6
- BPRS Tension percentage improvement (IDR n=8, Day 7): 38% and 37.50%
- BPRS Tension summed score (IDR n=8, Day 7): 10
- MADRS Concentration Difficulties improvement (points) (IDR n=8, Day 7): 21
- MADRS Concentration Difficulties percentage improvement (IDR n=8, Day 7): 70%
- MADRS Concentration Difficulties summed score (IDR n=8, Day 7): 9
- MADRS Inability to Feel improvement (points) (IDR n=8, Day 7): 30
- MADRS Inability to Feel percentage improvement (IDR n=8, Day 7): 83% and 83.33%
- MADRS Inability to Feel summed score (IDR n=8, Day 7): 6
- MADRS Inner Tension improvement (points) (IDR n=8, Day 7): 14
- MADRS Inner Tension percentage improvement (IDR n=8, Day 7): 54% and 53.85%
- MADRS Inner Tension summed score (IDR n=8, Day 7): 12
- MADRS Lassitude improvement (points) (IDR n=8, Day 7): 24
- MADRS Lassitude percentage improvement (IDR n=8, Day 7): 89% and 88.89%
- MADRS Lassitude summed score (IDR n=8, Day 7): 3
- MADRS Pessimistic Thoughts improvement (points) (IDR n=8, Day 7): 25
- MADRS Pessimistic Thoughts percentage improvement (IDR n=8, Day 7): 89% and 89.29%
- MADRS Pessimistic Thoughts summed score (IDR n=8, Day 7): 3
- MADRS Reduced Sleep improvement (points) (IDR n=8, Day 7): 16
- MADRS Reduced Sleep percentage improvement (IDR n=8, Day 7): 64%
- MADRS Reduced Sleep summed score (IDR n=8, Day 7): 9
- MADRS Suicidal Thoughts improvement (points) (IDR n=8, Day 7): 8
- MADRS Suicidal Thoughts percentage improvement (IDR n=8, Day 7): 73% and 72.73%
- MADRS Suicidal Thoughts summed score (IDR n=8, Day 7): 3
- patients with MADRS remission (primary endpoint) (IDR n=8, day seven): 87.5%
- SAEs reported (Part A): No SAEs
- safety laboratory analyses, vital signs, psychiatric safety assessments, measures of cognitive function (Part A and Part B): No clinically significant changes
- patients who experienced at least one ADR (Part A, in both groups (12 mg and 18 mg)): 3 of 4
- SAEs reported (Part B IDR): No SAEs
- patients who experienced at least one ADR (Part B IDR n=8): 87.5%
- patients achieving remission (fraction) (day 1): 8/8
- patients achieving remission (fraction) (within 2 h after dosing): ⅝

Reference: patent publication US20240108602A1, “TREATMENT OF MENTAL DISORDERS” (GH Research Ireland Limited, priority 2022, published 2024)
